# Assay results from US7927411B2, “Compound, ink, process and use” (Fujifilm Imaging Colorants Limited, priority 2007, dated 2011).
# Experiments:
# [1] = Solubility of dye in water; type: physicochemical
# [2] = Physical form: liquid crystalline behaviour in aqueous solution; type: physicochemical; details: for Dye (1) at a dye concentration of above about 25% by weight
# Description: This is anticipated to correspond to enhanced stability against precipitation and reduced dye degradation for concentrated solutions containing the compounds used in the present invention. The difference in liquid crystalline behaviour is surprising given the structural similarity of Dye (1) and Comparative Dye (1).
solubility in water [1],solubility in water relative to Comparative Dye (1) ([1]; ratio to Comparative Dye (1)),Compound,liquid crystalline behaviour [2]
30 % of dye by weight,twice,O=C(O)c1cc(/N=N/c2ccc(Nc3nc(Nc4ccc(/N=N/c5cc(S(=O)(=O)O)c6cccc(S(=O)(=O)O)c6c5)cc4)nc(N(CCO)CCO)n3)cc2)cc(C(=O)O)c1 [Dye (1)],exhibited liquid crystalline characteristics
15 % of dye by weight,–,"O=C(O)c1cc(/N=N/c2ccc(Nc3nc(NCCO)nc(Nc4ccc(/N=N/c5cc(S(=O)(=O)O)c6cccc(S(=O)(=O)O)c6c5)cc4)n3)cc2)cc(C(=O)O)c1 [Comparative Dye (1), reference compound]",no liquid crystalline behaviour
